{
  "source": "patent US10011649B2",
  "about": "(priority 2013, dated 2018)",
  "key": {"[1]": {"test_system": "UV inactivated Influenza A PR8/1934", "assay_type": "binding"}, "[2]": {"test_system": "A/PR/8/34 H1N1 infected Madin-Darby Canine Kidney (MDCK) cells", "assay": "Cytopathic effect assay (XTT), virus induced cell death", "assay_type": "cell-based", "conditions": "read-out: IC50, inhibition of virus induced cell death", "text": "The illustrated examples support the finding that synbodies inhibit the cytopathic effect of influenza on MDCK cells. Influenza binding peptides were conjugated to a bivalent scaffold (Sc1, as best shown in FIG. 2A) and screened for viral inhibition in an in vitro inhibition assay with A/PR/8/34 H1N1 infected Madin-Darby Canine Kidney (MDCK) cells."}, "[3]": {"test_system": "NP in A/Sydney/5/1997 H3N2 viral lysate", "assay_type": "binding"}, "[4]": {"biological_target": "T1, NP in A/PR/8/34 H1N1 viral lysate (Influenza A virus, UniProt P03466)", "T1 construct": "from tissue; host or cells: A/PR/8/34 H1N1 viral lysate", "T1 sequence (P03466 whole entry)": "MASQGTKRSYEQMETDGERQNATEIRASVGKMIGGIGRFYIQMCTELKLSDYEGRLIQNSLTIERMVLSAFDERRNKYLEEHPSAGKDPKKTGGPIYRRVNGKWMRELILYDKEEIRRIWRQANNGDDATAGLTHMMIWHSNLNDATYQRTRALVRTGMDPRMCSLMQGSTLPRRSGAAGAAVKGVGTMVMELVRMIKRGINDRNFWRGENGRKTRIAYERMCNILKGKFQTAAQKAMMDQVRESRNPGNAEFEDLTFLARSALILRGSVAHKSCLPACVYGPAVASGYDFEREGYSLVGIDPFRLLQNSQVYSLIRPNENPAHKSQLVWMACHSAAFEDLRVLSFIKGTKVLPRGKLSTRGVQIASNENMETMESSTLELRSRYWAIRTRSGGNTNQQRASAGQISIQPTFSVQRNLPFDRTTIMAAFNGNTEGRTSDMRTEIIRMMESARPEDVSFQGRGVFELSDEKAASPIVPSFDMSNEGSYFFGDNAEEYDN", "assay_type": "binding"}, "[5]": {"test_system": "hemagglutination of A/PR/8/34"}, "[6]": {"test_system": "UV inactivated Influenza A PR/8/1934 H1N1", "assay_type": "binding"}},
  "note": "Numbered stars: 1 amine (or outer) side, 2 acyl side, 3 side chain; on linkers, the order of the positions; unused ones are H or OH. Bridge positions count the residues as written; N and C are the ends. Square brackets hold non-standard residues; d marks the D form. Ends that are not written are not given here. I, II: the chains in the order shown. * marks the point of attachment. ξ: configuration not given here. Succinimide(1-C2H4CO,3-yl) = O=C1CC([*:1])C(=O)N1CCC(=O)[*:2]; X4 = O=C(O)CC[C@H](NC(=O)CCN1C(=O)CC([*:1])C1=O)C(=O)[*:2]; X2 = O=C(O)CCC(NC(=O)CCN1C(=O)CC([*:2])C1=O)C(=O)[*:1]; Biotin = O=C1N[C@H]2[C@H](CS[C@H]2CCCCC(=O)*)N1; X3 = O=C1CC([*:2])C(=O)N1CCC(=O)[*:1]; X1 = O=C1NC2CSC(CCCCC(=O)*)C2N1; scaffold‑1 = not defined here; Pra = C#CC[C@H](N)C(=O)O; ξE = NC(CCC(=O)O)C(=O)O; AEEA = NCCOCCOCC(=O)O; ξK = NCCCCC(N)C(=O)O; ξS = NC(CO)C(=O)O",
  "data": [
    {"substance": "opt14-opt14: homo-bivalent synbody SEQ ID NO: 15-15 on scaffold-1 (chain 1 CSGRMYEYNPFQGKHIYRKK; chain 2 CSGRMYEYNPFQGKHIYRKK; linker (positions not given here) via scaffold‑1; reading uncertain; also: homo-bivalent on scaffold-1, attachment not given here)", "values": [
      {"measurement": "Fold Change versus WT Synbody", "setting": "[1]", "result": 107, "unit": "fold"}
    ]},
    {"substance": "I: CSGDMYEYNPFQGNHIYNKK-NH2 / II: CSGDMYEYNPFQGNHIYNKK-NH2 / III: EKGSKSGK(Biotin)[Pra]-NH2 (linker I:1-III:2 via X4; linker II:1-III:N via Succinimide(1-C2H4CO,3-yl); C-terminus assumed) [P5-P5-Sc1]", "values": [
      {"measurement": "Fold Change versus WT Synbody", "setting": "[1]", "result": 1, "unit": "fold"},
      {"measurement": "IC50", "setting": "[2]", "result": "~2500", "unit": "nM"}
    ]},
    {"substance": "I: [ξE][ξK]G[ξS]G[ξS]G[AEEA][ξK](X1)IDKMPFETHRLGPGRFDGSG-NH2 / II: CSGDMYEYNPFQGNHIYNKK-NH2 / III: CSGDMYEYNPFQGNHIYNKK-NH2 (linker I:2-II:1 via X2; linker I:N-III:1 via X3) [P5-P5-Sc2]", "values": [
      {"measurement": "pull-down of NP from lysate", "setting": "[3]", "result": "pulled-down NP from both lysates"},
      {"measurement": "pull-down of NP from lysate", "setting": "[4]", "result": "pulled-down NP from both lysates"},
      {"measurement": "inhibition of hemagglutination", "setting": "[5]", "result": "did not inhibit hemagglutination"},
      {"measurement": "IC50", "setting": "A/CA/7/2009 H1N1", "result": 2500, "unit": "nM"},
      {"measurement": "IC50", "setting": "A/Sydney/5/1997 H3N2", "result": 2500, "unit": "nM"}
    ]},
    {"substance": "opt5-opt5: homo-bivalent synbody SEQ ID NO: 6-6 on scaffold-1 (chain 1 CSGRMYRYNPFQGNHIYNKK; chain 2 CSGRMYRYNPFQGNHIYNKK; linker (positions not given here) via scaffold‑1; reading uncertain; also: homo-bivalent on scaffold-1, attachment not given here)", "values": [
      {"measurement": "Fold Change versus WT Synbody", "setting": "[1]", "result": "n.b."}
    ]},
    {"substance": "opt4-opt4: homo-bivalent synbody SEQ ID NO: 5-5 on scaffold-1 (chain 1 CSGRMYPYNPFQGNHIYNKK; chain 2 CSGRMYPYNPFQGNHIYNKK; linker (positions not given here) via scaffold‑1; reading uncertain; also: homo-bivalent on scaffold-1, attachment not given here)", "values": [
      {"measurement": "Fold Change versus WT Synbody", "setting": "[1]", "result": 10, "unit": "fold"}
    ]},
    {"substance": "opt3-opt3: homo-bivalent synbody SEQ ID NO: 4-4 on scaffold-1 (chain 1 CSGDMYPYNPFQGNHIYNKK; chain 2 CSGDMYPYNPFQGNHIYNKK; linker (positions not given here) via scaffold‑1; reading uncertain; also: homo-bivalent on scaffold-1, attachment not given here)", "values": [
      {"measurement": "Fold Change versus WT Synbody", "setting": "[1]", "result": "n.b."}
    ]},
    {"substance": "opt9-opt9: homo-bivalent synbody SEQ ID NO: 10-10 on scaffold-1 (chain 1 CSGRMYPYRPFQGNHIYRKK; chain 2 CSGRMYPYRPFQGNHIYRKK; linker (positions not given here) via scaffold‑1; reading uncertain; also: homo-bivalent on scaffold-1, attachment not given here)", "values": [
      {"measurement": "Fold Change versus WT Synbody", "setting": "[1]", "result": 1, "unit": "fold"}
    ]},
    {"substance": "opt13-opt13: homo-bivalent synbody SEQ ID NO: 14-14 on scaffold-1 (chain 1 CCSGDRYEYNPFQGKHIYNK; chain 2 CCSGDRYEYNPFQGKHIYNK; linker (positions not given here) via scaffold‑1; reading uncertain; also: homo-bivalent on scaffold-1, attachment not given here)", "values": [
      {"measurement": "Fold Change versus WT Synbody", "setting": "[1]", "result": "n.b."}
    ]},
    {"substance": "opt1-opt1: homo-bivalent synbody SEQ ID NO: 2-2 on scaffold-1 (chain 1 CSGDMYRYNPFQGNHIYNKK; chain 2 CSGDMYRYNPFQGNHIYNKK; linker (positions not given here) via scaffold‑1; reading uncertain; also: homo-bivalent on scaffold-1, attachment not given here)", "values": [
      {"measurement": "Fold Change versus WT Synbody", "setting": "[1]", "result": 6, "unit": "fold"}
    ]},
    {"substance": "opt12-opt12: homo-bivalent synbody SEQ ID NO: 13-13 on scaffold-1 (chain 1 CSGRMYPYRPFQRKHIYRKK; chain 2 CSGRMYPYRPFQRKHIYRKK; linker (positions not given here) via scaffold‑1; reading uncertain; also: homo-bivalent on scaffold-1, attachment not given here)", "values": [
      {"measurement": "Fold Change versus WT Synbody", "setting": "[1]", "result": "n.b."}
    ]},
    {"substance": "opt2-opt2: homo-bivalent synbody SEQ ID NO: 3-3 on scaffold-1 (chain 1 CSGRMYEYNPFQGNHIYNKK; chain 2 CSGRMYEYNPFQGNHIYNKK; linker (positions not given here) via scaffold‑1; reading uncertain; also: homo-bivalent on scaffold-1, attachment not given here)", "values": [
      {"measurement": "Fold Change versus WT Synbody", "setting": "[1]", "result": 3, "unit": "fold"}
    ]},
    {"substance": "opt8-opt8: homo-bivalent synbody SEQ ID NO: 9-9 on scaffold-1 (chain 1 CSGTMYEYNPFQGNHIYNKK; chain 2 CSGTMYEYNPFQGNHIYNKK; linker (positions not given here) via scaffold‑1; reading uncertain; also: homo-bivalent on scaffold-1, attachment not given here)", "values": [
      {"measurement": "Fold Change versus WT Synbody", "setting": "[1]", "result": 1, "unit": "fold"}
    ]},
    {"substance": "opt7-opt7: homo-bivalent synbody SEQ ID NO: 8-8 on scaffold-1 (chain 1 CSGRMYPYNPFQGNHIYRKK; chain 2 CSGRMYPYNPFQGNHIYRKK; linker (positions not given here) via scaffold‑1; reading uncertain; also: homo-bivalent on scaffold-1, attachment not given here)", "values": [
      {"measurement": "Fold Change versus WT Synbody", "setting": "[1]", "result": 45, "unit": "fold"}
    ]},
    {"substance": "opt11-opt11: homo-bivalent synbody SEQ ID NO: 12-12 on scaffold-1 (chain 1 CSGTMYPYRPFQGNHIYRKK; chain 2 CSGTMYPYRPFQGNHIYRKK; linker (positions not given here) via scaffold‑1; reading uncertain; also: homo-bivalent on scaffold-1, attachment not given here)", "values": [
      {"measurement": "Fold Change versus WT Synbody", "setting": "[1]", "result": 47, "unit": "fold"}
    ]},
    {"substance": "opt6-opt6: homo-bivalent synbody SEQ ID NO: 7-7 on scaffold-1 (chain 1 CSGDMYEYNPFQGNHIYRKK; chain 2 CSGDMYEYNPFQGNHIYRKK; linker (positions not given here) via scaffold‑1; reading uncertain; also: homo-bivalent on scaffold-1, attachment not given here)", "values": [
      {"measurement": "Fold Change versus WT Synbody", "setting": "[1]", "result": 4, "unit": "fold"}
    ]},
    {"substance": "CSGrMYpYrPFQGNHIYrKK (CSG[dR]MYPY[dR]PFQGNHIY[dR]KK; not fully specified (residue 7); printed as CSGrMYpYrPFQGNHIYrKK) [opt10]", "values": [
      {"measurement": "fold improvement of optimized peptide over identified lead peptide", "setting": "[6]", "result": "approximately 1000 fold"}
    ]}
  ]
}
